The assay deals with BTK (Homo sapiens (Human), UniProt Q06187). Description: Btk kinase assay (HTRF). In kind it is biochemical. As to conditions: [ATP]=80 μM, BTK=3.4 nM; read-out: BTK Inhibition. The method, boiled down:
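HTRF kinase read-out (665/615 nm ratio, excitation 330 nm) after EDTA quench and 1 h detection incubation. Reaction: 3.4 nM BTK, ATP 80 μM, peptide substrate 1 μM, compound, HEPES pH 7.0 buffer, 1 h; IC50 derived using uninhibited and enzyme-free controls.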
For orientation: In TR-FRET formats the signal depends on donor and acceptor labels being close together.
Sequence of BTK (Q06187 whole entry, species assumed): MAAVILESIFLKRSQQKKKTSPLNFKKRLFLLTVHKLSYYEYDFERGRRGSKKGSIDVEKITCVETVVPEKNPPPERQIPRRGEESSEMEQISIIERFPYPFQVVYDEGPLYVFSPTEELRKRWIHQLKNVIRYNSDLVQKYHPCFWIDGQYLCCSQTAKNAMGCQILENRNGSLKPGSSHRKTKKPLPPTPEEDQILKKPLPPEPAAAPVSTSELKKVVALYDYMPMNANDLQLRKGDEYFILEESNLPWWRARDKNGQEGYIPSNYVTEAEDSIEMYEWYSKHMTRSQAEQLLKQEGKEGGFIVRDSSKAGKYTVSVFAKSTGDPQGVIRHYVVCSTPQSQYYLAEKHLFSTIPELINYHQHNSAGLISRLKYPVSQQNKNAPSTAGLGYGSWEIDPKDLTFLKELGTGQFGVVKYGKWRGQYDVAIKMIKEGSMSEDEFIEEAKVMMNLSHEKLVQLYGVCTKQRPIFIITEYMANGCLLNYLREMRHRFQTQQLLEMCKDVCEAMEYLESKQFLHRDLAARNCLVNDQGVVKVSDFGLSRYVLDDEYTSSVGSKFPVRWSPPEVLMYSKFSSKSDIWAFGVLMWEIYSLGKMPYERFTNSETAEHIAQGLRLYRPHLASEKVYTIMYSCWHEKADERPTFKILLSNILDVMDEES
Consider `C=CC(=O)N1CC[C@@H](n2c(=O)n(-c3ccc(OCc4ccccn4)c(Cl)c3)c3cnccc32)C1` [Example 204, (R)-1-(1-acryloylpyrrolidin-3-yl)-3-(3-chloro-4-(pyridin-2-ylmethoxy)phenyl)-1H-imidazo[4,5-c]pyridin-2(3H)-one], for which the IC50 was 100 to 1000 nM.

On to `C=CC(=O)N1CC[C@@H](n2c(=O)n(-c3ccc(Oc4ccc(C(F)(F)F)cc4)cc3)c3cnccc32)C1` [Example 36, (R)-1-(1-acryloylpyrrolidin-3-yl)-3-(4-(4-(trifluoromethyl)phenoxy)phenyl)-1H-imidazo[4,5-c]pyridin-2(3H)-one], for which the IC50 lay within 100 to 1000 nM.

For the compound `C=CC(=O)Nc1cccc(-n2c(=O)n(-c3ccc(OCc4ccc(Cl)cc4Cl)cc3)c3cnccc32)c1` [Example 229, N-(3-(3-(4-((2,4-dichlorobenzyl)oxy)phenyl)-2-oxo-2,3-dihydro-1H-imidazo[4,5-c]pyridin-1-yl)phenyl)acrylamide], the IC50 was in the range of 10 to 100 nM.

For `C=CC(=O)Nc1cccc(-n2c(=O)n(-c3ccc(OCc4cccc(Cl)c4F)c(F)c3)c3cnccc32)c1` [Example 238, N-(3-(3-(4-((3-chloro-2-fluorobenzyl)oxy)-3-fluorophenyl)-2-oxo-2,3-dihydro-1H-imidazo[4,5-c]pyridin-1-yl)phenyl)acrylamide], the IC50 was in the range of 100 to 1000 nM.

Regarding `C=CC(=O)Nc1cccc(-n2c(=O)n(-c3ccc(OCc4ccccc4)c(Cl)c3)c3cnccc32)c1` [Example 224, N-(3-(3-(4-(benzyloxy)-3-chlorophenyl)-2-oxo-2,3-dihydro-1H-imidazo[4,5-c]pyridin-1-yl)phenyl)acrylamide], the IC50 is 100 to 1000 nM.

Take `C=CC(=O)N1CC[C@@H](n2c(=O)n(-c3ccc(Oc4cccc(C)c4)c(Cl)c3)c3cnccc32)C1` [Example 19, (R)-1-(1-acryloylpyrrolidin-3-yl)-3-(3-chloro-4-(m-tolyloxy)phenyl)-1H-imidazo[4,5-c]pyridin-2(3H)-one]: the IC50 was 10 to 100 nM.

Consider `C=CC(=O)Nc1cccc(-n2c(=O)n(-c3ccc(Oc4cccc(OC)c4)cc3)c3cnccc32)c1` [Example 158, N-(3-(3-(4-(3-methoxyphenoxy)phenyl)-2-oxo-2,3-dihydro-1H-imidazo[4,5-c]pyridin-1-yl)phenyl) acrylamide], for which the IC50 is 10 to 100 nM.

With `C=CC(=O)N1CC[C@@H](n2c(=O)n(-c3ccc(OCc4ccc(C(F)(F)F)cc4)cc3)c3cnccc32)C1` [Example 212, (R)-1-(1-acryloylpyrrolidin-3-yl)-3-(4-((4-(trifluoromethyl)benzyl)oxy)phenyl)-1H-imidazo[4,5-c]pyridin-2(3H)-one], the IC50 lay within 100 to 1000 nM.

As for `C=CC(=O)N1CC[C@@H](n2c(=O)n(-c3ccc(C(=O)NCc4cccc(OC)c4)cc3)c3cnccc32)C1` [Example 256, (R)-4-(1-(1-acryloylpyrrolidin-3-yl)-2-oxo-1H-imidazo[4,5-c]pyridin-3(2H)-yl)-N-(3-methoxybenzyl)benzamide], the IC50 was in the range of 1000 to 10000 nM.

Take `C=CC(=O)Nc1cccc(-n2c(=O)n(-c3ccc(Oc4cccc(C)c4C)cc3)c3cnccc32)c1` [Example 147, N-(3-(3-(4-(2,3-dimethylphenoxy)phenyl)-2-oxo-2,3-dihydro-1H-imidazo[4,5-c]pyridin-1-yl)phenyl)acrylamide]: the IC50 is 10 to 100 nM.

For the compound `C=CC(=O)Nc1cccc(-n2c(=O)n(-c3ccc(Oc4cccc(C)c4C)c(Cl)c3)c3cnccc32)c1` [Example 148, N-(3-(3-(3-chloro-4-(2,3-dimethylphenoxy)phenyl)-2-oxo-2,3-dihydro-1H-imidazo[4,5-c]pyridin-1-yl)phenyl)acrylamide], the IC50 was 10 to 100 nM.

Consider `C=CC(=O)N1CC[C@@H](n2c(=O)n(-c3ccc(Oc4cccc(F)c4)c(F)c3)c3cnccc32)C1` [Example 77, (R)-1-(1-acryloylpyrrolidin-3-yl)-3-(3-fluoro-4-(3-fluorophenoxy)phenyl)-1H-imidazo[4,5-c]pyridin-2(3H)-one], for which the IC50 fell in the range of 10 to 100 nM.

Turning to `C=CC(=O)N1CCC(n2c(=O)n(-c3ccc(Oc4cccc(OC(F)(F)F)c4)cc3)c3cnccc32)C1` (stereo not shown) [Example 112, 1-(1-acryloylpyrrolidin-3-yl)-3-(4-(3-(trifluoromethoxy)phenoxy)phenyl)-1H-imidazo[4,5-c]pyridin-2(3H)-one], the IC50 was in the range of 10 to 100 nM.

For `C=CC(=O)N1CC[C@@H](n2c(=O)n(-c3ccc(Oc4ccc(OC)c(OC)c4)cc3)c3cnccc32)C1` [Example 40, (R)-1-(1-acryloylpyrrolidin-3-yl)-3-(4-(3,4-dimethoxyphenoxy)phenyl)-1H-imidazo[4,5-c]pyridin-2(3H)-one], the IC50 was in the range of 10 to 100 nM.

As to `C=CC(=O)N1CC[C@@H](n2c(=O)n(-c3ccc(Oc4cccc(OC)c4F)cc3)c3cnccc32)C1` [Example 191, (R)-1-(1-acryloylpyrrolidin-3-yl)-3-(4-(2-fluoro-3-methoxyphenoxy)phenyl)-1H-imidazo[4,5-c]pyridin-2(3H)-one], the IC50 is at most 10 nM.

On to `CC#CC(=O)N1CC[C@@H](n2c(=O)n(-c3ccc(Oc4ccccc4)cc3)c3cnccc32)C1` [Example 34, (R)-1-(1-(but-2-ynoyl)pyrrolidin-3-yl)-3-(4-phenoxyphenyl)-1H-imidazo [4,5-c]pyridin-2(3H)-one], for which the IC50 is at least 10000 nM.

As to `C=CC(=O)N1CC[C@@H](n2c(=O)n(-c3ccc(OCc4ccccn4)cc3)c3cnccc32)C1` [Example 213, (R)-1-(1-acryloylpyrrolidin-3-yl)-3-(4-(pyridin-2-ylmethoxy)phenyl)-1H-imidazo[4,5-c]pyridin-2(3H)-one], the IC50 was in the range of 1000 to 10000 nM.

With `C=CC(=O)Nc1cccc(-n2c(=O)n(-c3ccc(OCc4ccccc4Cl)cc3)c3cnccc32)c1` [Example 231, N-(3-(3-(4-((2-chlorobenzyl)oxy)phenyl)-2-oxo-2,3-dihydro-1H-imidazo[4,5-c]pyridin-1-yl)phenyl)acrylamide], the IC50 fell in the range of 10 to 100 nM.

In the case of `C=CC(=O)N1CC[C@@H](n2c(=O)n(-c3ccc(Oc4ccc(Cl)c(Cl)c4)c(Cl)c3)c3cnccc32)C1` [Example 44, (R)-1-(1-acryloylpyrrolidin-3-yl)-3-(3-chloro-4-(3,4-dichlorophenoxy)phenyl)-1H-imidazo[4,5-c]pyridin-2(3H)-one], the IC50 lay in the range of 10 to 100 nM.

As for `CC#CC(=O)N1CCC[C@@H]1Cn1c(=O)n(-c2ccc(Oc3cccc(OC)c3F)cc2)c2cncc(C)c21` [Example 169, (R)-1-((1-(but-2-ynoyl)pyrrolidin-2-yl)methyl)-3-(4-(2-fluoro-3-methoxyphenoxy)phenyl)-7-methyl-1H-imidazo[4,5-c]pyridin-2(3H)-one], the IC50 was in the range of 100 to 1000 nM.

On to `C=CC(=O)Nc1cccc(-n2c(=O)n(-c3ccc(C4CC4)cc3)c3cnccc32)c1` [Example 278, N-(3-(3-(4-cyclopropylphenyl)-2-oxo-2,3-dihydro-1H-imidazo[4,5-c]pyridin-1-yl)phenyl)acrylamide], for which the IC50 lay within 10 to 100 nM.

Consider `C=CC(=O)N1CCC(Cn2c(=O)n(-c3ccc(Oc4ccccc4)cc3)c3cnccc32)CC1` [Example 15, 1-((1-acryloylpiperidin-4-yl)methyl)-3-(4-phenoxyphenyl)-1H-imidazo[4,5-c]pyridin-2(3H)-one], for which the IC50 was 100 to 1000 nM.

Consider `C=CC(=O)Nc1cccc(-n2c(=O)n(-c3ccc(Oc4ccc(F)c(F)c4)cc3)c3cnccc32)c1` [Example 126, N-(3-(3-(4-(3,4-difluorophenoxy)phenyl)-2-oxo-2,3-dihydro-1H-imidazo[4,5-c]pyridin-1-yl)phenyl)acrylamide], for which the IC50 lay within 100 to 1000 nM.

In the case of `C=CC(=O)Nc1cccc(-n2c(=O)n(-c3ccc(OCc4c(F)cccc4F)c(F)c3)c3cnccc32)c1` [Example 227, N-(3-(3-(4-((2,6-difluorobenzyl)oxy)-3-fluorophenyl)-2-oxo-2,3-dihydro-1H-imidazo[4,5-c]pyridin-1-yl)phenyl)acrylamide], the IC50 was in the range of 100 to 1000 nM.

For `C=CC(=O)N1CCC[C@@H]1Cn1c(=O)n(-c2ccc(Oc3cccc(OC)c3F)cc2)c2cncc(C)c21` [Example 170, (R)-1-((1-acryloylpyrrolidin-2-yl)methyl)-3-(4-(2-fluoro-3-methoxyphenoxy)phenyl)-7-methyl-1H-imidazo[4,5-c]pyridin-2(3H)-one], the IC50 was in the range of 100 to 1000 nM.

In the case of `C=C(C)C(=O)N1CC[C@@H](n2c(=O)n(-c3ccc(Oc4ccccc4)cc3)c3cnccc32)C1` [Example 28, (R)-1-(1-methacryloylpyrrolidin-3-yl)-3-(4-phenoxyphenyl)-1H-imidazo[4,5-c]pyridin-2(3H)-one], the IC50 lay in the range of 1000 to 10000 nM.

Regarding `C=CC(=O)N1CCCC1Cn1c(=O)n(-c2ccc(Oc3ccccc3)cc2)c2cnccc21` (stereo not shown) [Example 178, 1-(1-Acryloyl-pyrrolidin-2-ylmethyl)-3-(4-phenoxy-phenyl)-1,3-dihydro-imidazo [4,5-c]pyridin-2-one], the IC50 lay within 10 to 100 nM.

With `C=CC(=O)Nc1cccc(-n2c(=O)n(-c3ccc(NC(=O)c4cccc(F)c4)cc3)c3cnccc32)c1` [Example 265, N-(4-(1-(3-acrylamidophenyl)-2-oxo-1H-imidazo[4,5-c]pyridin-3(2H)-yl)phenyl)-3-fluorobenzamide], the IC50 was 100 to 1000 nM.

For `O=C(/C=C/c1ccccc1)N1CC[C@@H](n2c(=O)n(-c3ccc(Oc4ccccc4)c(Cl)c3)c3cnccc32)C1` [Example 22, (R,E)-3-(3-chloro-4-phenoxyphenyl)-1-(1-cinnamoylpyrrolidin-3-yl)-1H-imidazo[4,5-c]pyridin-2(3H)-one], the IC50 is at least 10000 nM.

As to `C=CC(=O)N1CCC[C@@H](n2c(=O)n(-c3ccc(Oc4cccc(OC(C)C)c4)cc3)c3cnccc32)C1` [Example 14, (R)-1-(1-acryloylpiperidin-3-yl)-3-(4-(3-isopropoxyphenoxy)phenyl)-1H-imidazo[4,5-c]pyridin-2(3H)-one], the IC50 lay within 10 to 100 nM.

With `C=CC(=O)N1CCC[C@@H](n2c(=O)n(-c3ccc(Oc4cccc(F)c4F)cc3)c3cnccc32)C1` [Example 61, (R)-1-(1-acryloylpiperidin-3-yl)-3-(4-(2,3-difluorophenoxy)phenyl)-1H-imidazo[4,5-c]pyridin-2(3H)-one], the IC50 was in the range of 10 to 100 nM.

These data come from patent US10358446B2, “Bruton's tyrosine kinase inhibitors” (Zibo Biopolar Changsheng Pharmaceutical Co. Ltd., priority 2015, dated 2019).
